IC50 data for 3 compounds are collected here from patent publication US9556202B2, “Sulfonamide derivatives and methods of use thereof for improving the pharmacokinetics of a drug” (MERCK SHARP & DOHME CORP., priority 2012, dated 2017).

As usually defined, the IC50 is the midpoint of a concentration-inhibition curve.

In one assay the target is T1, CYP1A2 (Homo sapiens, UniProt P05177).
T1 construct: 0.1 mg/mL protein human liver microsomes (BD Gentest); tissue BD Gentest; host or cells: human liver microsomes
T1 sequence (P05177 1-516): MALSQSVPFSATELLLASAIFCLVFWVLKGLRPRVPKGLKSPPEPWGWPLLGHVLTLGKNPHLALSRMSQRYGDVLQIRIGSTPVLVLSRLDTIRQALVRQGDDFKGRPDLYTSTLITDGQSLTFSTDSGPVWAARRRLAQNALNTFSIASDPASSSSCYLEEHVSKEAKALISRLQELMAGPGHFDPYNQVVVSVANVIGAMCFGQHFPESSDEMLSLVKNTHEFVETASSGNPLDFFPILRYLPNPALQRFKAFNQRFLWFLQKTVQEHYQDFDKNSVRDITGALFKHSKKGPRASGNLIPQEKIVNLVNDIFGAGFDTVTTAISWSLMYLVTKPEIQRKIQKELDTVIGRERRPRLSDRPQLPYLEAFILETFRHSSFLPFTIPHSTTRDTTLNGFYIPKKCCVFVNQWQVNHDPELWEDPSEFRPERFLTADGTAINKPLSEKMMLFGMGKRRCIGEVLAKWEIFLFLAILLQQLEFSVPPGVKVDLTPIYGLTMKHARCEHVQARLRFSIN
As to the kind of experiment: Cocktail CYP inhibition assay in human liver microsomes, phenacetin O-deethylation. In kind it is in vitro ADME. To be noted: human liver microsomes 0.1 mg/mL, 10 μM phenacetin, 10 min 37° C.; test conc. up to 10 μM; unit inferred. How it is done: (§1) Determination of IC50 in a Cocktail Assay for CYPs 1A2, 2C9, 2C19, 2D6 and 3A4
(§2) This assay was performed in a standard 96-well plate design. IC50 values were calculated from the percent inhibition observed for each test compound at 6 concentrations (for example, 0.0032, 0.016, 0.08, 0.4, 2 and 10 μM). The incubation substrate mix contains 10 μM phenacetin (1A2), 5 μM diclofenac (2C9), 30 μM mephenytoin (2C19), 5 μM dextromethorphan (2D6) and 2 μM midazolam (3A4), 0.1 mg/mL protein human liver microsomes (BD Gentest), 1 mM NAPDH, 3.3 mM MgCl2 and 100 mM potassium phosphate buffer (pH 7.4). The production of the metabolite of each probe substrate was determined after incubation for 10 min at 37° C. Quantitation of the metabolite peak area ratio against an internal standard (tolbutamide) was determined by LC/MS/MS analysis following acetonitrile treatment of the incubations.
(§3) Samples were analyzed in the MRM mode with a SCIEX API-4000 mass spectrometer (Applied Biosystems, Foster City, Calif.), with a Shimadzu LC-20 AD pump (Shimadzu corporation, Kyoto, JP) and a CTC PAL autosampler (Agilent Technologies, Switzerland). A Phenomenex, Luna, 5 μm, 100 A, 2.00×30 mm HPLC column was used for the separation. The mobile phases were: (A) 0.1% formic acid in water and (B) 0.1% formic acid in acetonitrile. The binary gradient was as follows.
(§4) The peak area ratio of the analyte to the internal standard was used to quantify the metabolite. The values of peak area ratios in the presence of test compound were compared to those of maximum or minimum controls and were expressed as % inhibition by interpolating between the maximum and minimum peak area ratios. Incubations with no inhibitor were defined as the maxima.
(§5) The following equation was used to calculate the % inhibition: [1−[(X−Low control)/(High control−Low control)]]*100
(§6) For the IC50 calculation, SigmaPlot was used to plot the mean % inhibition versus the test compound concentrations and for non-linear regression analysis of the data. […]

A further assay has as its target T2, CYP2C19 (Homo sapiens, UniProt P33261).
T2 construct: 0.1 mg/mL protein human liver microsomes (BD Gentest); tissue BD Gentest; host or cells: human liver microsomes
Description: Cocktail CYP inhibition assay in human liver microsomes, mephenytoin 4'-hydroxylation. In kind it is in vitro ADME. To be noted: human liver microsomes 0.1 mg/mL, 30 μM mephenytoin, 10 min 37° C.; unit inferred. The procedure:
as §1, §2, §3, §4, §5, §6

For another assay, the target named is T3, human CYP11B2 (Homo sapiens, UniProt P19099).
T3 construct: expressed in transfected cells
T3 sequence (P19099 25-503): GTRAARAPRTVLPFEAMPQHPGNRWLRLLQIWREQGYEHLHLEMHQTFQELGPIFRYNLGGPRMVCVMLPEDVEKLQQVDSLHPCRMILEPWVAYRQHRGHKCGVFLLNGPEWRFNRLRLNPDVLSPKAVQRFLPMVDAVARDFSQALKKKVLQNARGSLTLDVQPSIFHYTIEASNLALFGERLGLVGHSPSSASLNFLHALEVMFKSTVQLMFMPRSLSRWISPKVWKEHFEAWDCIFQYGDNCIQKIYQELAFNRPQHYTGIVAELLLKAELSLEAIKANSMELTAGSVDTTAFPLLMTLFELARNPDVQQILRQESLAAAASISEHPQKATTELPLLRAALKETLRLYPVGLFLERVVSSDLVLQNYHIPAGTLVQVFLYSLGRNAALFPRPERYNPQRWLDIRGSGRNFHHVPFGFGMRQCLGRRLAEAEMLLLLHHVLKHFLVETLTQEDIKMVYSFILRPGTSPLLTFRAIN
Description: IC50 vs CYP11B2 by aldosterone synthesis in V79 cells (HTRF). In kind it is cell-based. To be noted: V79 cells expressing human CYP11B2, 750 nM DOC, test conc. 0.5-10000 nM, unit inferred. How it is done: Determination of IC50 Vs CYP11B1/CYP11B2 by Measurement of Cortisol/Aldosterone Synthesis
This assay was performed in a standard 384-well plate design using cultured V79 cells stably expressing human CYP11B1 or human CYP11B2. Test compounds at 10 concentrations (for example, 10000, 3333.3, 1111.1, 370.4, 123.5, 41.2, 13.7, 4.6, 1.5 and 0.5 nM) were added in 384-well plate after the cell-seeding procedure. The incubation substrate contains 1500 nM RSS for CYP11B1 assay/750 nM DOC for CYP11B2 assay. The Cortisol/Aldosterone production of cell culture supernatant was determined by Cortisol/Aldosterone HTRF kit after for about 15 hours incubation at RT (protect from light). IC50 values were calculated from the percent inhibition observed for each test compound at 10 concentrations.
The assay plate was read using Envision (Perkin Elmer, Waltham, Mass.) at 665 nm and 590 nm (using Filter Barcode of 217#, 205#; Mirror Barcode of 446#).
Data are analyzed using Assay Data Analyzer. All ratio data (665 nm/590 nm) are back calculated according to the standard curve, resulting in Cortisol/Aldosterone concentrations. IC50 values are reported as the Inflection Point (IP) of a four parameter fit of the titration data.
The following equation was used to calculate the % inhibition: % Activity=100×{1−(Sample_back calculated Cortisol/Aldosterone concentration−LC_back calculated Cortisol/Aldosterone concentration)/(HC_back calculated Cortisol/Aldosterone concentration−LC_back calculated Cortisol/Aldosterone concentration)} Curve Fitting: Four Parameter Logistic: […]
In general terms: Time-resolved FRET reads energy transfer from a long-lived donor to a nearby acceptor.

SMILES strings stand for the structures.

T2 sequence (P33261 whole entry): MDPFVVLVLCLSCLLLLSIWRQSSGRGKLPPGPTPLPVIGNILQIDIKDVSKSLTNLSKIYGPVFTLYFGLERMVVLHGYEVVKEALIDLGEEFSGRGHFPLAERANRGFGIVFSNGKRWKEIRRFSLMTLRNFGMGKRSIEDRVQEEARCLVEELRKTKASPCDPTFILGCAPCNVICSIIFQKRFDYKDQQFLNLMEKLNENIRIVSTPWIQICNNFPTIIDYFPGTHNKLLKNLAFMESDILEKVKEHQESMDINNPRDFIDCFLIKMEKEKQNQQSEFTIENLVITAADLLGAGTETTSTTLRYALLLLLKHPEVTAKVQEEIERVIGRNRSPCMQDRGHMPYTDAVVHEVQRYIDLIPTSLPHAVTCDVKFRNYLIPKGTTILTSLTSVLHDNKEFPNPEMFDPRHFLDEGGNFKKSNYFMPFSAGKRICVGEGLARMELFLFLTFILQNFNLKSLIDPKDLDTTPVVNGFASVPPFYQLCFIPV

Consider `COCCC(c1cncn1[C@H](C)c1ccc(F)cc1)N1CCN(S(=O)(=O)c2cnc(N3CCN(C)CC3)s2)CC1` (single isomer, unassigned) [Compound 36], for which the IC50 was more than 10 µM against CYP1A2, more than 10 µM against CYP2C19 and 3.83 µM at human CYP11B2.
As to `C[C@H](c1ccc(F)cc1)n1cncc1C1CCCC2CN(S(=O)(=O)c3cnc(Nc4ccccn4)s3)CCN21` (single isomer, unassigned) [Compound 38], the IC50 was more than 10 µM against CYP1A2, 4.18 µM on CYP2C19 and 1.31 µM against human CYP11B2.
As to `COCC(c1cncn1[C@H](C)c1ccc(F)cc1)N1CCN(S(=O)(=O)c2cnc(N3CCN(C)CC3)s2)CC1` (single isomer, unassigned) [Compound 35], the IC50 at CYP1A2 was more than 10 µM; on CYP2C19 it was more than 10 µM; on human CYP11B2, 5 µM.
